Data taken from publication PMC10687260, “1,3-Diphenylureido hydroxamate as a promising scaffold for generation of potent antimalarial histone deacetylase inhibitors” (Scientific Reports, 2023).
Where two headings read alike, the source gives them in different places.

Legend:
P. falciparum 3D7 [1] = conditions: Fig. 1A; cited from earlier work
acetylated histone H3 = experiment: Western blot of acetylated histone H3 in infected erythrocytes; type: cell-based, Plasmodium falciparum; conditions: 10 × IC50 for 4 h, trophozoites, vs DMSO
Experimental: (§1) Figure 5 Hydroxamic acid derivatives as potent in vitro PfHDAC1 inhibitors. […]. Enzyme activity was calculated by normalizing the data against the DMSO treated samples and discounting the background. Data are presented as shown above, with mean ± S.D. (n = 2). […]. Comparison of group/concentration against the DMSO control is represented as † for P < 0.0001. […]. Numbers on side of the bands represent the predicted mass (kDa) for each protein. (C,D) Band quantification of histone H3 (C) and H4 (D), respectively, normalizing their acetylated detection against their unmodified version. Differences to this value were analyzed by one way ANOVA using the Dunnett’s post correction, comparing each group against the DMSO control, as rank tests where P values are explicitly depicted.
(§2) Western Blot analysis. […]. Proteins were transferred to PVDF membranes, 5% non-fat dry milk in TBS with Tween 20 (0.1%) was used as blocking agent for 1 h at room temperature. After, incubated with the antibodies overnight at 4 °C (Acetyl Histone H3 Lys9 C5B11 Cell Signaling, Acetyl Histone H4 Lys16 E2B8W Cell Signaling, Histone H3 96C10 Cell Signaling and Histone H4 D2X4V Cell Signaling). For the analysis of protein acetylation levels, the membranes were stripped and re-probed with the corresponding anti-total protein. Mouse monoclonal anti-α-Tubulin (B512 Sigma-Aldrich) was used as loading control. Detection was performed by enhanced chemiluminescence using horseradish peroxidase-conjugated secondary antibodies (Vector Laboratories, Burlingame, CA, USA) and SuperSignal TM West Pico PLUS Chemiluminescent substrate kit (Thermo Scientific). Images were acquired using ChemiDoc TM Imaging System (BioRad Laboratories, CA, USA). Quantitative densitometry was carried out using ImageLab software (Bio-Rad Laboratories, CA, USA). The volume density of the chemiluminescent bands was calculated as an integrated optical density × mm^2 after background correction from each independent experiment (N = 3).

PfHDAC1 = molecular target: T1, PfHDAC1 (Plasmodium falciparum, UniProt Q7K6A1); experiment: In vitro PfHDAC1 enzymatic assay; type: biochemical
T1 construct: purchased BPS Bioscience (San Diego, CA)
T1 sequence (Q7K6A1 1-449): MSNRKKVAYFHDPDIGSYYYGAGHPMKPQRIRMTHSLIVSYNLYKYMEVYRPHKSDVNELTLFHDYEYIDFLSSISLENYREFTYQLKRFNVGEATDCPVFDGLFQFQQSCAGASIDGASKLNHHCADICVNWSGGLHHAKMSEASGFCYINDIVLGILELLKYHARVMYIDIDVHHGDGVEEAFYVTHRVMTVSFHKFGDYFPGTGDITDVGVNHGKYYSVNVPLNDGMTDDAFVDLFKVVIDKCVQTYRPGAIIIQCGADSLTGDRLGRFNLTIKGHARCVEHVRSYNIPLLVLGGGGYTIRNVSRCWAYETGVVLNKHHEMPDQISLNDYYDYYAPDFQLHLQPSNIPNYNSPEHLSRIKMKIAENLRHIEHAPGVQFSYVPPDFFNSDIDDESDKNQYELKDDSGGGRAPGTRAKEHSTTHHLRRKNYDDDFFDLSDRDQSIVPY
Experimental: In vitro PfHDAC1 enzymatic assay. PfHDAC inhibition assays were performed by BPS Bioscience (San Diego, CA). […] Then, each DMSO solution was directly diluted 10 × fold into the HDAC assay buffer for an intermediate dilution of 10% DMSO in HDAC assay buffer. Then, 5 µL of the intermediate dilution was added to a 50 µL reaction so that the final concentration of DMSO is 1% in all the reactions. […] Fluorescence intensity was measured at an excitation of 360 nm and an emission of 460 nm using a Tecan Infinite M1000 microplate reader. […] The fluorescent intensity data were analyzed using GraphPad Prism (v9.5.2). In the absence of the compound, the fluorescent intensity (Ft) in each data set was defined as 100% activity. In the absence of HDAC, the fluorescent intensity (Fb) in each data set was defined as 0% activity. The percent activity in the presence of each compound was calculated according to the following equation: % activity = (F-Fb)/(Ft-Fb), where “F” is the fluorescent intensity in the presence of the compound.

P. falciparum 3D7 [2] = experiment: Antiplasmodial SYBR Green I proliferation assay, P. falciparum 3D7; type: cell-based, Plasmodium falciparum; conditions: read-out: IC50 Pf3D7
Text: (§3) Antiplasmodial activity against P. falciparum 3D7 (A, C and E) and P. falciparum Dd2 (B, D, F). […] Curves were plotted using non-linear regression based on means from three independent experiments measured in triplicate. Error bars indicate standard deviation, whose values are provided in the respective table.
(§4) Plasmodium falciparum culture and antiplasmodial activity. […] Development, parasitaemia, and morphology of parasites were monitored by light microscopy of thin blood smears stained according to the Romanowsky method (Panótico Rápido staining kit; Laborclin, Pinhais, Paraná, Brazil). […] Fresh 0^+ blood was generously provided by “Hospital Novo Atibaia” (Atibaia, SP, Brazil), and approved by the ethics committee at ICB-USP. The antiplasmodial effect of all compounds was validated against P. falciparum 3D7 strain conducting SYBR Green I (Invitrogen) drug assays as previously reported[30],[46] as a modification of the original procedure. […] Parasite proliferation was measured by the DNA load via fluorescence, using 100 μL of a lysis buffer with SYBR Green I (0.02% v/v) and incubated for 1 h at room temperature in the dark. […] Focal and gain adjustment was performed using the non-treated controls (highest expected fluorescence signal). Data was acquired via the CLARIOstar (V5.20) and MARS software, manually scaled to 0–100%, and plotted using GraphPad Prism (v9.5.2 for Windows, GraphPad Software, La Jolla California USA, www.graphpad.com). Non-treated parasites, the highest solvent concentration on parasites, CQ on parasites, and the highest drug concentration in the medium were used as controls for maximal growth, solvent control, positive biological control, and native drug fluorescence, respectively.

P. falciparum Dd2 = experiment: Antiplasmodial SYBR Green I proliferation assay, P. falciparum Dd2; type: cell-based; conditions: Plasmodium falciparum
Text: as §3, §4

acetylated histone H4 = experiment: Western blot of acetylated histone H4 in infected erythrocytes; type: cell-based, Plasmodium falciparum; conditions: 10 × IC50 for 4 h, trophozoites, vs DMSO
Experimental: as §1, §2

HepG2 cells = experiment: Cytotoxicity in human HepG2 cells (WST-1); type: cell-based; conditions: read-out: IC50 HepG2
Experimental: Cytotoxicity in human HepG2 cells.[47] […] Cytotoxic effects of compounds were assessed using the cell proliferation reagent WST-1 (Roche; CELLPRO-RO) in a 96-well plate-based screening assay. HepG2 cells were seeded at 10^4 cells/well (100 μL) in 96-well flat-bottom plates (Sarstedt) the night before the experiment to allow attachment of cells. The next day, two-fold serial dilutions of compounds were prepared in fresh medium in an extra plate, and the medium of cells was replaced by the medium containing the compound dilutions. Non-treated cells (max. proliferation), cells treated with the maximal solvent concentration (DMSO; solvent control), and medium with the maximal compound concentration (native absorbance) used as controls. […] Subsequently, 10 μL WST-1 was added to each well and plates were incubated for additional 4 h under standard conditions. WST-1 is a tetrazolium salt and is metabolised by the mitochondrial succinate-tetrazolium-reductase system of living cells and forms formazan, whose absorbance was measured at 450 nm. Absorbance at 630 nm was assessed to check for protein and precipitation background. Both measurements were acquired via the CLARIOstar (V5.20) and MARS software, manually scaled to 0–100%, and plotted with GraphPad Prism (version 9.5.2 for Windows, GraphPad Software, La Jolla California USA).

CYP450 2C9 = molecular target: T2, CYP450 2C9 (Homo sapiens, UniProt P11712); experiment: CYP450 inhibition in human liver microsomes, 2C9; type: in vitro ADME; conditions: 10 µM
T2 construct: 10 μM compound was incubated with human liver microsomes and selective marker substrates; from tissue; host or cells: human liver microsomes

CYP1A2 = molecular target: T3, CYP1A2 (Homo sapiens, UniProt P05177); experiment: CYP450 inhibition in human liver microsomes, 1A2; type: in vitro ADME; conditions: 10 µM
T3 construct: 10 μM compound was incubated with human liver microsomes and selective marker substrates; from tissue; host or cells: human liver microsomes
T3 sequence (P05177 1-516): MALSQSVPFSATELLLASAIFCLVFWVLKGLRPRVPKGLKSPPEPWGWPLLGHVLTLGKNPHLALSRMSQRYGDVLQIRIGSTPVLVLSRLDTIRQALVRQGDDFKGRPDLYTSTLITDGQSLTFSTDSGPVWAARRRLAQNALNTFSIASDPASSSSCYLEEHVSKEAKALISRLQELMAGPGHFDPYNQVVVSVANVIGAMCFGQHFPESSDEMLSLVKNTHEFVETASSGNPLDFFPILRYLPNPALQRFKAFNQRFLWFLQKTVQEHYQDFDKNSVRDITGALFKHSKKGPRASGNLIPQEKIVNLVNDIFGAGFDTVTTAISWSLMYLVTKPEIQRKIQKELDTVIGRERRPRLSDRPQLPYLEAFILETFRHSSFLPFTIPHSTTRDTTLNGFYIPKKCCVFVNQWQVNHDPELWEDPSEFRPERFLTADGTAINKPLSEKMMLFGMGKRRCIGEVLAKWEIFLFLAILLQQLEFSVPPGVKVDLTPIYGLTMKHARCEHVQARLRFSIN

CYP450 2D6 = molecular target: T4, CYP450 2D6 (Homo sapiens, UniProt P10635); experiment: CYP450 inhibition in human liver microsomes, 2D6; type: in vitro ADME; conditions: 10 µM
T4 construct: 10 μM compound was incubated with human liver microsomes and selective marker substrates; from tissue; host or cells: human liver microsomes
T4 sequence (P10635 whole entry): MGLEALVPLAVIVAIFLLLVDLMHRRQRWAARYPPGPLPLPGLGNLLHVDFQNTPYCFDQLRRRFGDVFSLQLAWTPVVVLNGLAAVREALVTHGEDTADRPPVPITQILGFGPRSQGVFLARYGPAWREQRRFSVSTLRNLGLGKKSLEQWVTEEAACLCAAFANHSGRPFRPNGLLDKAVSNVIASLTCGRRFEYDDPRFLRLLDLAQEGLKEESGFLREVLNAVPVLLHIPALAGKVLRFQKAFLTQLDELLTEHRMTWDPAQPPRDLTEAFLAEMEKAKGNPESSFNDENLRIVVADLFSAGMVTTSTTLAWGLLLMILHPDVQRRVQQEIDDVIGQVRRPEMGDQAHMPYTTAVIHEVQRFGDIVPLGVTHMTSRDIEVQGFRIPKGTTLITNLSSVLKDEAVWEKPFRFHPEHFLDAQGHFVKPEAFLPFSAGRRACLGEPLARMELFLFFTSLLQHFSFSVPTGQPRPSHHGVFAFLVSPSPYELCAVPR

T2 sequence (P11712 whole entry): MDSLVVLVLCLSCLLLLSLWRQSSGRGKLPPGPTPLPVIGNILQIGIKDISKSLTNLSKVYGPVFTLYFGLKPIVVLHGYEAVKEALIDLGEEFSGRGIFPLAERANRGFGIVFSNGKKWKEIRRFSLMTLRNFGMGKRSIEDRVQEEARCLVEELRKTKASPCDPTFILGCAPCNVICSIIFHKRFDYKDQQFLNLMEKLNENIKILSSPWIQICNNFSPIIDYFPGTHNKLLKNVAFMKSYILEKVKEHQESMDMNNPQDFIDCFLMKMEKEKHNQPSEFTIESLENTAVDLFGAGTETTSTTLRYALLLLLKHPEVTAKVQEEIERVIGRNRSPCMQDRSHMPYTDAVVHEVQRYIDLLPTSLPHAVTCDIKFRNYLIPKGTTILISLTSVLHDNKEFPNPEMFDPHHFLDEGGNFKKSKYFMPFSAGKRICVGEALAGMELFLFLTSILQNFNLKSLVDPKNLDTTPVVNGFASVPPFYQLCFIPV

With `Cn1cc(CNCC2CCN(c3ncc(C(=O)NO)cn3)CC2)c2ccccc21` [quisinostat] as the compound, how does the IC50 (P. falciparum 3D7 [1]) read?
Its IC50 is 5 nM.

Which “Acetylated-H3 level (normalised to unmodified H3)” value (acetylated histone H3) does the source give for `CCCCN(Cc1ccc(C(=O)NO)cc1)C(=O)Nc1ccccc1` [Nexturastat A (16), Nexturastat A, reference compound] here?
Its value is “non-statistically significant increase”.

And the inhibition at 1 µM (PfHDAC1; recombinant PfHDAC1)?
The inhibition at 1 µM was 58%.

And the inhibition at 10 µM (PfHDAC1; 10 µM, recombinant PfHDAC1)?
Its inhibition at 10 µM is 92%.

What about the IC50 (P. falciparum 3D7 [2]; 96 h, values in brackets 95% confidence intervals) of the same compound?
Its IC50 is 230 nM.

And the IC50 (P. falciparum 3D7 [2]; Plasmodium falciparum, 3D7, 96 h, 96 h, values in brackets 95% confidence intervals)?
The IC50 was 210 nM.

And the IC50 (P. falciparum Dd2; DD2, multidrug/CQ-resistant strain, read-out: IC50 P. falciparum Dd2)?
Its IC50 is 290 nM.

And the “Acetylated-H4 level (normalised to unmodified H4)” value (acetylated histone H4)?
Its value is “non-statistically significant increase”.

What about the IC50 (HepG2 cells; Homo sapiens, HepG2, 48 h, WST-1) of the same compound?
The IC50 was 21500 nM.

With `Cc1[nH]c2ccccc2c1CCNCc1ccc(/C=C/C(=O)NO)cc1` [panobinostat] as the compound, how does the IC50 (P. falciparum 3D7 [1]) read?
Its IC50 is 10 nM.

Which IC50 (P. falciparum 3D7 [1]) does the source give for `O=C(/C=C/c1cccc(S(=O)(=O)Nc2ccccc2)c1)NO` [belinostat] here?
Its IC50 is 60 nM.

With `CCN(CC)CCCC(C)Nc1ccnc2cc(Cl)ccc12` (centres unmarked) [Chloroquine, reference compound] as the compound, how does the IC50 (P. falciparum 3D7 [2]; Plasmodium falciparum, 3D7, 96 h) read?
Its IC50 is 15 nM.

And the IC50 (P. falciparum Dd2; DD2, read-out: IC50 P. falciparum Dd2)?
The IC50 was 430 nM.

What about the IC50 (HepG2 cells; Homo sapiens, HepG2, 48 h) of the same compound?
The IC50 was greater than 100000 nM.

Which results are given for `O=C(CCCCCCC(=O)Nc1ccccc1)NO` [Vorinostat (SAHA, 1), Vorinostat, reference compound]?
Acetylated-H3 level (normalised to unmodified H3) (acetylated histone H3): non-statistically significant increase; IC50 (PfHDAC1): 100 to 1000 nM; inhibition at 1 µM (PfHDAC1; recombinant PfHDAC1): 83%; Acetylated-H4 level (normalised to unmodified H4) (acetylated histone H4): non-statistically significant increase; IC50 (HepG2 cells; 48 h, WST-1): 2870 nM

For `Nc1ccccc1NC(=O)c1ccc(CNC(=O)OCc2cccnc2)cc1` [entinostat], which IC50 (P. falciparum 3D7 [1]) is on record?
Its IC50 is 7800 nM.

Which “CYP450% inhibition @ 10 µM 2C9” value (CYP450 2C9) does the source give for `C=C[C@H]1C[N@@]2CC[C@H]1C[C@@H]2[C@@H](O)c1ccnc2ccc(OC)cc12` [Quinidine, reference compound] here?
The value was “* (Inhibition < 10%)”.

What about the “CYP450% inhibition @ 10 µM 1A2” value (CYP1A2) of the same compound?
Its value is “* (Inhibition < 10%)”.

What about the “CYP450% inhibition @ 10 µM 2D6” value (CYP450 2D6) of the same compound?
The value was 89%.
